Assay results as given in PubChem BioAssay (NCI).
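Protocol summary: plate cells (96-well), add compound at 5 concentrations, incubate 48 h, interpolate endpoints linearly. The concentration for 50% growth inhibition is given as GI50. The concentration for full growth arrest is given as TGI.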

How the values were obtained:
Test in all cases: growth of human tumour cells (NCI), 48 h
[1] = tested on: OVCAR-8 ovarian
[2] = tested on: PC-3 prostate
[3] = tested on: SNB-19 CNS
[4] = tested on: U251 CNS
[5] = tested on: M14 melanoma
[6] = tested on: MDA-MB-231 breast
[7] = tested on: A498 renal
[8] = tested on: KM12 colon
[9] = tested on: DU-145 prostate
[10] = tested on: SN12C renal
[11] = tested on: CAKI-1 renal
[12] = tested on: NCI/ADR-RES ovarian
[13] = tested on: EKVX NSCLC
[14] = tested on: RXF 393 renal
[15] = tested on: SF-268 CNS
[16] = tested on: MALME-3M melanoma
[17] = tested on: SW-620 colon
[18] = tested on: COLO 205 colon
[19] = tested on: NCI-H522 lung
[20] = tested on: MCF7 breast
[21] = tested on: T-47D breast
[22] = tested on: TK-10 renal
[23] = tested on: NCI-H460 lung
[24] = tested on: HT29 colon
[25] = tested on: OVCAR-3 ovarian
[26] = tested on: NCI-H226 lung
[27] = tested on: UACC-62 melanoma
[28] = tested on: UACC-257 melanoma
[29] = tested on: IGROV1 ovarian
[30] = tested on: SK-MEL-28 melanoma
[31] = tested on: HCT-15 colon
[32] = tested on: SNB-75 CNS
[33] = tested on: HS 578T breast
[34] = tested on: MOLT-4 leukemia
[35] = tested on: HOP-92 NSCLC
[36] = tested on: HL-60(TB) leukemia
[37] = tested on: NCI-H23 lung
[38] = tested on: HCC-2998 colon
[39] = tested on: OVCAR-5 ovarian
[40] = tested on: MDA-MB-435
[41] = tested on: LOX IMVI melanoma
[42] = tested on: SK-MEL-2 melanoma
[43] = tested on: SK-MEL-5 melanoma
[44] = tested on: 786-0 renal
[45] = tested on: UO-31 renal
[46] = tested on: HOP-62 NSCLC
[47] = tested on: RPMI-8226 leukemia
[48] = tested on: A549 NSCLC
[49] = tested on: ACHN renal
[50] = tested on: OVCAR-4 ovarian
[51] = tested on: SF-539 CNS
[52] = tested on: SF-295 CNS
[53] = tested on: K-562 leukemia
[54] = tested on: HCT-116 colon
[55] = tested on: SR leukemia
[56] = tested on: CCRF-CEM leukemia
[57] = tested on: BT-549 breast

For O=[N+]([O-])c1ccc(Oc2cccc(C(F)(F)F)c2)c([N+](=O)[O-])c1, the GI50 [1] was 2.48 µM, the TGI [1] was 8.16 µM and the GI50 [2] was 4.2 µM. It also gave a TGI [2] of 16.4 µM, a GI50 [3] of 5.25 µM and a TGI [3] of 18.3 µM. It also gave a GI50 [4] of 3.61 µM, a TGI [4] of 14.2 µM and a GI50 [5] of 2.79 µM. The TGI [5] was 14 µM, the GI50 [6] was 3.17 µM and the TGI [6] was 10.2 µM. It also gave a GI50 [7] of 12.7 µM, a TGI [7] of 25.3 µM and a GI50 [8] of 2.52 µM. For the same compound, the TGI [8] was 6.73 µM, the GI50 [9] was 2.33 µM and the TGI [9] was 5.38 µM. The GI50 [10] was 3.63 µM, the TGI [10] was 13.4 µM and the GI50 [11] was 3.08 µM. It also gave a TGI [11] of 21.5 µM, a GI50 [12] of 3.04 µM and a TGI [12] of 12.1 µM. For the same compound, the GI50 [13] was 7.11 µM, the TGI [13] was 22.5 µM and the GI50 [14] was 2.61 µM. The TGI [14] was 7.87 µM, the GI50 [15] was 3.17 µM and the TGI [15] was 12.2 µM. For the same compound, the GI50 [16] was 5.66 µM, the TGI [16] was 23.9 µM and the GI50 [17] was 0.451 µM. The TGI [17] was 10.1 µM, the GI50 [18] was 2.64 µM and the TGI [18] was 6.04 µM. The GI50 [19] was 2.11 µM, the TGI [19] was 5.7 µM and the GI50 [20] was 2.81 µM. For the same compound, the TGI [20] was 8.33 µM, the GI50 [21] was 2.55 µM and the TGI [21] was 7.66 µM. The GI50 [22] was 3.54 µM, the TGI [22] was 9.33 µM and the GI50 [23] was 3.1 µM. It also gave a TGI [23] of 10.2 µM, a GI50 [24] of 4.68 µM and a TGI [24] of 16.2 µM. The GI50 [25] was 3.19 µM, the TGI [25] was 9.21 µM and the GI50 [26] was 2.11 µM. For the same compound, the TGI [26] was 5.92 µM, the GI50 [27] was 3.78 µM and the TGI [27] was 15.2 µM. For the same compound, the GI50 [28] was 5.46 µM, the TGI [28] was 18.7 µM and the GI50 [29] was 3.02 µM. It also gave a TGI [29] of 14.2 µM, a GI50 [30] of 6.47 µM and a TGI [30] of 19.9 µM. It also gave a GI50 [31] of 2.41 µM, a TGI [31] of 10.3 µM and a GI50 [32] of 5.11 µM. It also gave a TGI [32] of 37.9 µM, a GI50 [33] of 3.99 µM and a TGI [33] of 32 µM. For the same compound, the GI50 [34] was 0.344 µM, the TGI [34] was 2.92 µM and the GI50 [35] was 1.25 µM. For the same compound, the TGI [35] was 5.39 µM, the GI50 [36] was 1.7 µM and the TGI [36] was 4.65 µM. For the same compound, the GI50 [37] was 2.15 µM, the TGI [37] was 12 µM and the GI50 [38] was 2.3 µM. For the same compound, the TGI [38] was 6.51 µM, the GI50 [39] was 4.08 µM and the TGI [39] was 17.6 µM. It also gave a GI50 [40] of 1.67 µM, a TGI [40] of 3.93 µM and a GI50 [41] of 0.447 µM. For the same compound, the TGI [41] was 10.8 µM, the GI50 [42] was 3.81 µM and the TGI [42] was 9.82 µM. The GI50 [43] was 2.53 µM, the TGI [43] was 7.72 µM and the GI50 [44] was 3.24 µM. The TGI [44] was 9.81 µM, the GI50 [45] was 3.15 µM and the TGI [45] was 13.8 µM. The GI50 [46] was 4.01 µM, the TGI [46] was 16.1 µM and the GI50 [47] was 2.6 µM. For the same compound, the TGI [47] was 7.62 µM, the GI50 [48] was 4.56 µM and the TGI [48] was 16.5 µM. For the same compound, the GI50 [49] was 3.39 µM, the TGI [49] was 13.8 µM and the GI50 [50] was 3 µM. It also gave a TGI [50] of 19.9 µM, a GI50 [51] of 3.05 µM and a TGI [51] of 11.5 µM. The GI50 [52] was 2.87 µM, the TGI [52] was 11.3 µM and the GI50 [53] was 0.303 µM. The TGI [53] was 9.59 µM, the GI50 [54] was 1.24 µM and the TGI [54] was 12.7 µM. It also gave a GI50 [55] of 0.286 µM, a TGI [55] of 1.82 µM and a GI50 [56] of 0.296 µM. The TGI [56] was 3.18 µM.
For O=C(Nc1ccc2cc3ccc(NC(=O)N4CCCCCC4)cc3nc2c1)N1CCCCCC1, the GI50 [4] was 0.534 µM, the TGI [4] was 1.81 µM and the GI50 [5] was 1.32 µM. The TGI [5] was 2.78 µM, the GI50 [14] was 0.219 µM and the TGI [14] was 0.505 µM. The GI50 [16] was 1.13 µM, the TGI [16] was 2.53 µM and the GI50 [22] was 1.92 µM. It also gave a TGI [22] of 3.46 µM, a GI50 [28] of 1.81 µM and a TGI [28] of 3.36 µM. The GI50 [30] was 1.32 µM, the TGI [30] was 2.67 µM and the GI50 [35] was 1.57 µM. It also gave a TGI [35] of 3.28 µM, a GI50 [41] of 1.42 µM and a TGI [41] of 2.75 µM. It also gave a GI50 [42] of 1.62 µM, a TGI [42] of 3.14 µM and a GI50 [43] of 1.48 µM. The TGI [43] was 2.81 µM, the GI50 [44] was 0.344 µM and the TGI [44] was 1.28 µM. The GI50 [45] was 1.66 µM, the TGI [45] was 3.04 µM and the GI50 [47] was 0.315 µM. It also gave a TGI [47] of 1.02 µM, a GI50 [51] of 0.841 µM and a TGI [51] of 2.09 µM. For the same compound, the GI50 [52] was 0.783 µM, the TGI [52] was 2.12 µM and the GI50 [53] was 0.35 µM. It also gave a TGI [53] of 1.23 µM.
CCN(CC)CCNC(=O)c1cc(Cl)c(N)cc1OC was tested, and the GI50 [57] was 82.3 µM, the GI50 [1] was 28.4 µM and the TGI [1] was 46.2 µM. It also gave a GI50 [7] of 11.1 µM, a TGI [7] of 40.1 µM and a GI50 [23] of 23.5 µM. The TGI [23] was 45.8 µM, the GI50 [24] was 20.8 µM and the TGI [24] was 38.7 µM. It also gave a GI50 [28] of 13.9 µM, a TGI [28] of 19.4 µM and a GI50 [32] of 50.2 µM. For the same compound, the GI50 [43] was 99.6 µM, the GI50 [45] was 99.1 µM and the GI50 [52] was 25.3 µM. It also gave a TGI [52] of 44.2 µM and a GI50 [53] of 56.5 µM.
